Assays:
AeKir1 = AeKir1 (Aedes aegypti, UniProt L0EQS9); experiment: Whole-cell patch clamp electrophysiology of T-REx-HEK293-AeKir1 cells; format: cell-based
Method: T-REx-HEK293-AeKir1 cells were voltage clamped in the whole-cell configuration of the patch clamp technique after overnight induction with tetracycline (1 µg/ml) essentially as described earlier. Briefly, patch electrodes were pulled from silanized 1.5 mm outer diameter borosilicate microhematocrit tubes using a Narishige PC-10 two-stage puller. Electrode resistance ranged from 3.5 to 5.5 MΩ when filled with the following intracellular solution (in mM): 135 KCl, 2 MgCl2, 1 EGTA, 10 HEPES free acid, 2 Na2ATP (Roche, Indianapolis, IN), pH 7.3, 275 mOsm. The standard bath solution contained (in mM): 135 NaCl, 5 KCl, 2 CaCl2, 1 MgCl2, 5 glucose, 10 HEPES free acid, pH 7.4, 290 mOsm. Whole-cell currents were recorded under voltage-clamp conditions using an Axopatch 200B amplifier (Molecular Devices, Sunnyvale, CA). Electrical connections to the amplifier were made using Ag/AgCl wires and 3 M KCl/agar bridges. Electrophysiological data were collected at 5 kHz and filtered at 1 kHz. Data acquisition and analysis were performed using pClamp 9.2 software (Axon Instruments). All recordings were made at room temperature (20–23°C).

[1] = tested on: adult female mosquitoes (A. aegypti); experiment: Mosquito excretion experiments (excretory capacity); format: in vivo, Aedes aegypti; conditions: 1 h after injection, mean ±SEM
Method: The Aedes aegypti mosquito colony used in the present study is identical to that described previously. As before, only adult female mosquitoes 3–10 days post emergence were utilized for experiments.
The excretory capacity of mosquitoes was measured as described. In brief, after anesthetizing mosquitoes on ice, their hemolymph was injected as described above with 900 nL of a K^+-PBS vehicle containing 1.15% DMSO, 0.077% β-cyclodextrin, and 0.008% Solutol, or the vehicle containing VU625 (0.77 mM) to deliver a dose of 690 pmol of VU625 per mosquito. In experiments where probenecid was used, the vehicle was supplemented with water- soluble probenecid […] to deliver a dose of 3.4 nmol of probenecid per mosquito. After injection, the mosquitoes were placed immediately in a graduated, packed-cell volume tube (MidSci, St. Louis, MO; 5 mosquitoes per tube) and held at 28°C. The volume of urine excreted at 60 min post injection was measured as described previously, and all mosquitoes were confirmed to be alive at the end of 60 min period. For each treatment, 6–18 independent trials of 5 mosquitoes per treatment were performed.
Prism (GraphPad Software) was used to generate a dose-response curve for the toxicity of VU625; the doses (x-axis) were first log transformed and then the mortality data was normalized using Prism, where the smallest value and largest values in a data set equal ‘0%’ and ‘100%’, respectively. The data were then fitted using a ‘biphasic’ algorithm (<100 constraint) to calculate potencies (ED25 and ED75 values). To compare 1) the toxic effects among the vehicle, probenecid, VU625, and VU625 + probenecid treatments, and 2) the excretory capacity among the vehicle, probenecid, VU625, and VU625 + probenecid treatments, one-way ANOVAs were performed with Newman-Keuls posttests.

AeKir1, sequence (L0EQS9 entry or part of it): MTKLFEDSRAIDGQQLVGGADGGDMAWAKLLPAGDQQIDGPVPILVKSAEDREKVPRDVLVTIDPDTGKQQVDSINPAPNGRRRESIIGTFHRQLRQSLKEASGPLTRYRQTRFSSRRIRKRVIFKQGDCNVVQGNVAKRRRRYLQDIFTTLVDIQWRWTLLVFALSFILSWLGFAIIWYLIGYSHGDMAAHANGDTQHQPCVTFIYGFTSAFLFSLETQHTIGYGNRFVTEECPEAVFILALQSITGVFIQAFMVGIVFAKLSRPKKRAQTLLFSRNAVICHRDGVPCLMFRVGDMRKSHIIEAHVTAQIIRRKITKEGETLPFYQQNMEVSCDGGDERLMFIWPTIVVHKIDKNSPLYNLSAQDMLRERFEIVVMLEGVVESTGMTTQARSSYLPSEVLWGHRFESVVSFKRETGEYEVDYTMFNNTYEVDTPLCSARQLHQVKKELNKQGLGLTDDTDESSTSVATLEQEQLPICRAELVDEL

For CCC(=O)N1c2ccc(S(=O)(=O)Nc3cccc(OC)c3)cc2CC1C (stereo not shown) [VU625, N-(3-methoxyphenyl)-2-methyl-1-propionylindoline-5-sulfonamide], the “Hill coefficient (nH)” value (AeKir1; 95% CI: 0.8–1.3) was 1.02, the IC50 (AeKir1; T-REx-HEK293 cells, 95% CI: 75.4–124.2 nM, n = 4–6) was 0.0968 µM and the “excretory capacity (urine excreted)” value ([1]; VU625 690 pmol + probenecid 3.4 nmol per mosquito in 900 nL vehicle) was 236.7±24.53 nL/female. For the same molecule, the “excretory capacity (urine excreted)” value ([1]; VU625 690 pmol per mosquito in 900 nL vehicle) was 583.3±29.52 nL/female.

Source: publication PMC4222822, “Discovery and Characterization of a Potent and Selective Inhibitor of Aedes aegypti Inward Rectifier Potassium Channels” (PLoS ONE, 2014)
